# Measured values from patent US10047051B2, “Substituted pyridines and method of use” (AbbVie S.á{acute over (.)}r.l., priority 2015, dated 2018).
# How the values were obtained:
# [1] = target: T1, CFTR ΔF508 mutant (Homo sapiens, UniProt P13569, DEL508-508); assay: YFP-halide influx assay for the CFTR-ΔF508 mutation (CFBE41o- cells); type: cell-based; details: forskolin 10.67 μM; for EC50: from (1−F/F0) vs concentration plot
# T1 construct: expressed in transfected cells; host or cells: CFBE41o- cells, adenoviral transduction
# Description: The YFP halide influx assay measured the functionality of the cystic fibrosis Transmembrane Conductance regulator (CFTR) channels in the cystic fibrosis bronchial epithelium cell line CFBE41o-. The assay was used to evaluate the capacity of compounds to increase the open probability of existing CFTR channels in the membrane. It makes use of the observation that the yellow fluorescent protein (YFP) variant YFP H148Q, I152L, F47L has its fluorescence substantially quenched by halide ions like Cl^− and I^− (Galietta, L. J. V., Haggie, P. M., Verkman, A. S., 2001. Green fluorescent protein-based halide indicators with improved chloride and iodide affinities. FEBS Lett. 499, 220-224. doi:10.1016/S0014-5793(01)02561-3; Nagai, T., Ibata, K., Park, E. S., Kubota, M., Mikoshiba, K., Miyawaki, A., 2002. A variant of yellow fluorescent protein with fast and efficient maturation for cell-biological applications. Nat. Biotechnol. 20, 87-90. doi: 10.1038/nbt0102-87).
# For this purpose, CFBE41o-cells were seeded in 384 well plates (3000 CFBE cells/well). One day after seeding, the CFBE cells were transduced with adenoviral vectors that direct the expression of the CFTR ΔF508 mutant and of the YFP reporter. Cells were incubated at 27° C., 5% CO2 for 24 hours so as to allow for the proper folding and migration to the membrane of the CFTR channel or treated with a CFTR modulator during 24 hours at 37° C.
# (§1) The I-induced quenching of fluorescence was recorded on an immediately after injection of iodide for 2 minutes on an FDSS/μCell (Hamamatsu). The capacity of a compound to increase the channel opening was directly correlated with the decrease in fluorescence, and was expressed as (1−(fluorescence after 36 seconds (F)/fluorescence before injection (F0))) and an EC50 was derived from a (1−F/F0) vs compound concentration plot.
# [2] = target: T2, CFTR G551D mutant (Homo sapiens, UniProt P13569, G551D); assay: YFP-halide influx assay for the CFTR-G551D mutation (HEK293 cells); type: cell-based; details: forskolin 10.67 μM
# T2 construct: expressed in transfected cells; host or cells: HEK293 cells, reverse transfection with plasmids
# Description: The YFP halide influx assay measured the functionality of the cystic fibrosis Transmembrane Conductance regulator (CFTR) channels. The assay was used to evaluate the capacity of compounds to increase the channel opening of existing mutant CFTR channels in the membrane. It makes use of the observation that the yellow fluorescent protein (YFP) variant YFP H148Q, I152L, F47L has its fluorescence substantially quenched by halide ions like Cl^− and I^− (Galietta, L. J. V., Haggie, P. M., Verkman, A. S., 2001. Green fluorescent protein-based halide indicators with improved chloride and iodide affinities. FEBS Lett. 499, 220-224. doi:10.1016/S0014-5793(01)02561-3).
# For this purpose, HEK293-cells were seeded in 96 well plates. During seeding, the cells were reverse-transfected with plasmid vectors that direct the expression of the CFTR G551D mutant and of the YFP reporter. Cells were incubated at 37° C., 5% CO2 for 24 hours so as to allow for sufficient expression of the CFTR protein.
# as §1, with “I^−-induced” for “I-induced”, “recorded” for “recorded on an”, “I^−” for “iodide”, “7 seconds.” for “2 minutes on an FDSS/μCell (Hamamatsu).”, “7” for “36”
# T1 sequence (P13569 with tags, fused parts or gaps DEL508-508): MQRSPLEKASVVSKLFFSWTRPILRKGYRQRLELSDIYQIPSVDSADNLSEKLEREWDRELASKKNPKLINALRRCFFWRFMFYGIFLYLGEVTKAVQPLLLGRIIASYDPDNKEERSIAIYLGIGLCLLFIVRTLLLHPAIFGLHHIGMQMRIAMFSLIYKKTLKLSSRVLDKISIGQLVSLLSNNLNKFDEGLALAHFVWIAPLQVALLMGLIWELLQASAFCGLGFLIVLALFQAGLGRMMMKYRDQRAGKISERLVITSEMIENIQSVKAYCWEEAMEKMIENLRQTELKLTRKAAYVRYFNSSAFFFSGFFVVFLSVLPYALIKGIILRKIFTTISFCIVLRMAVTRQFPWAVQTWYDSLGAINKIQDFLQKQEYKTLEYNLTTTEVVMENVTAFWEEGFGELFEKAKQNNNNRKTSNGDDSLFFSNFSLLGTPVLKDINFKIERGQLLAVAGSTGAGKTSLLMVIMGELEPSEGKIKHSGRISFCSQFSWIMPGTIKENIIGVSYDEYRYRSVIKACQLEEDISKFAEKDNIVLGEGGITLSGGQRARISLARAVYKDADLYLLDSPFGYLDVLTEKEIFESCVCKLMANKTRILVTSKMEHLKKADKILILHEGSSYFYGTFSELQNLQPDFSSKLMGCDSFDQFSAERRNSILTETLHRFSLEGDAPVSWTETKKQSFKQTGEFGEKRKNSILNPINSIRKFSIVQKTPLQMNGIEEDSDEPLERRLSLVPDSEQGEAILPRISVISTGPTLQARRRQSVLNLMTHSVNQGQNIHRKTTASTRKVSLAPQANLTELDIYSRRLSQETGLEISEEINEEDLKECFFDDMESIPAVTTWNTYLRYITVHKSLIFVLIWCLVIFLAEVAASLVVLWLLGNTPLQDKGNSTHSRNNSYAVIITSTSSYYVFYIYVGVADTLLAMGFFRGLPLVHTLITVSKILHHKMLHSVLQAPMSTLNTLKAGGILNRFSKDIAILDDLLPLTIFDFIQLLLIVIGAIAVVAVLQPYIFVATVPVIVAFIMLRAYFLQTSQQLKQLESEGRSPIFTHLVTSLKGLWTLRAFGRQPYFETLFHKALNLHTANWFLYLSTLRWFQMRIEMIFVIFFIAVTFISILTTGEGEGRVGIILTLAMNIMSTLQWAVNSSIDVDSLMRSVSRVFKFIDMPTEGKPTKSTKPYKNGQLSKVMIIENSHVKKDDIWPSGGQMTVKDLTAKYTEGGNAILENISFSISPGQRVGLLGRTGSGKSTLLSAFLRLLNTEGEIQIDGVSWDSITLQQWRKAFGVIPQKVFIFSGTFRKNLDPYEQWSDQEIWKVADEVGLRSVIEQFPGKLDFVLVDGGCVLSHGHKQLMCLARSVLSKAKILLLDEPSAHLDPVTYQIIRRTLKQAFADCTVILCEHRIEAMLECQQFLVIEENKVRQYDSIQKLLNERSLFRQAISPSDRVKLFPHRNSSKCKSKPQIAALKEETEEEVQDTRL
# T2 sequence (P13569 whole entry G551D): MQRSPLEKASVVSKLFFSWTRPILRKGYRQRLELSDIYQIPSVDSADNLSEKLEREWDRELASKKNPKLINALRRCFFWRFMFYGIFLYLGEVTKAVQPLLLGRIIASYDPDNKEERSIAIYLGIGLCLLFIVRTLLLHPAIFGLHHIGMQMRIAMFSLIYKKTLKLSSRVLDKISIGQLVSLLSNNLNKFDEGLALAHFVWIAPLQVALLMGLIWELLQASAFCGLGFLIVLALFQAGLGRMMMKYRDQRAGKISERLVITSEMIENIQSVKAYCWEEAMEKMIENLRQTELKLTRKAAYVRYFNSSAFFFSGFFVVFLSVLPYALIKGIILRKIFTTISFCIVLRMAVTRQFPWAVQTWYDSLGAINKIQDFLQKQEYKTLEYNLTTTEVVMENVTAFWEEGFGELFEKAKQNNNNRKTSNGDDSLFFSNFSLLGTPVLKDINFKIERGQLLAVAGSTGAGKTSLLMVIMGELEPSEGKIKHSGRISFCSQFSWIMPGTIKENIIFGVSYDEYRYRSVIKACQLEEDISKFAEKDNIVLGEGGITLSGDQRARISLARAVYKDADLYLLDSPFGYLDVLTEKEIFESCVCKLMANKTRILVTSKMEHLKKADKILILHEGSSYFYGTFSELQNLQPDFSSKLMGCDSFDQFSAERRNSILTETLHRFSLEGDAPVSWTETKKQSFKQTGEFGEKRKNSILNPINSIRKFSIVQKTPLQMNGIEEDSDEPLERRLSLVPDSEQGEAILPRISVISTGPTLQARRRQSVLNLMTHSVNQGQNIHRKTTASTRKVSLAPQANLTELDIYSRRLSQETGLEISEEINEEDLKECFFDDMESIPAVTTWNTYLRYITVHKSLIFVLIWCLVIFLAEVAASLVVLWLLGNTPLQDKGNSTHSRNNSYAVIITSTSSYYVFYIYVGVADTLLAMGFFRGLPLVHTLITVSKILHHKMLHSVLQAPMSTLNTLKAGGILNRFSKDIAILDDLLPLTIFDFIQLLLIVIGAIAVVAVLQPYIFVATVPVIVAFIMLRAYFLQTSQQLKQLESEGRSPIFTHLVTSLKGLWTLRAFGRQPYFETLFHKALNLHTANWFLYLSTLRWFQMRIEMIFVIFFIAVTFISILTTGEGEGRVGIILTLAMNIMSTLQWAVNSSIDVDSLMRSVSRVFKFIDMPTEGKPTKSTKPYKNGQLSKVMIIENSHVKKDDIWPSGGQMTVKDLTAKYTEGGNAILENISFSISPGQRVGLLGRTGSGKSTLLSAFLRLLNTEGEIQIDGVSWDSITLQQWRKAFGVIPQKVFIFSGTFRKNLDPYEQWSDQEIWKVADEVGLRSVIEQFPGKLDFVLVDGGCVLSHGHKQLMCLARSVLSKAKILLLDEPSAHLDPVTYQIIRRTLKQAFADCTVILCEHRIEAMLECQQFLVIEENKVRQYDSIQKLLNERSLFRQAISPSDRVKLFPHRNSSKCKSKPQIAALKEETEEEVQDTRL
Compound,% Activation [1],EC50 [1],% Activation [2],EC50 [2]
"Nc1cc(S(=O)(=O)c2ccc(C(F)(F)F)cc2)cnc1C(=O)N[C@@H]1CCC[C@@H]1O [Compound 205, 3-amino-N-[(1R,2S)-2-hydroxycyclopentyl]-5-{[4-(trifluoromethyl)phenyl]sulfonyl}pyridine-2-carboxamide]",96.5%,0.0599 µM,37.6%,
"CN(C)C(=O)C1CN(C(=O)c2ncc(S(=O)(=O)c3ccc(OC(F)(F)F)cc3)cc2N)C1 [Compound 62, 1-[(3-amino-5-{[4-(trifluoromethoxy)phenyl]sulfonyl}pyridin-2-yl)carbonyl]-N,N-dimethylazetidine-3-carboxamide]",91.8%,0.14 µM,49.3%,1.39 µM
"Nc1cc(S(=O)(=O)c2ccc(OC(F)(F)F)cc2)cnc1C(=O)NC[C@@H](O)CO [Compound 50, 3-amino-N-[(2R)-2,3-dihydroxypropyl]-5-{[4-(trifluoromethoxy)phenyl]sulfonyl}pyridine-2-carboxamide]",90.8%,0.0575 µM,23.5%,> 10 µM
"N#CC1CN(C(=O)c2ncc(S(=O)(=O)c3ccc(OC(F)(F)F)cc3)cc2N)C1 [Compound 61, 1-[(3-amino-5-{[4-(trifluoromethoxy)phenyl]sulfonyl}pyridin-2-yl)carbonyl]azetidine-3-carbonitrile]",101.0%,0.0609 µM,70.0%,2.73 µM
"C[C@H](O)CNC(=O)c1ncc(S(=O)(=O)N2CCCC2CO)cc1N (mixture of isomers) [Compound 268, 3-amino-5-{[2-(hydroxymethyl)pyrrolidin-1-yl]sulfonyl}-N-[(2S)-2-hydroxypropyl]pyridine-2-carboxamide]",37.1%,> 0.667 µM,0.3%,
"Nc1cc(S(=O)(=O)c2ccc(C(F)(F)F)cc2)cnc1C(=O)NCCOCC1CCCO1 (stereo not drawn) [Compound 190, 3-amino-N-[2-(tetrahydrofuran-2-ylmethoxy)ethyl]-5-{[4-(trifluoromethyl)phenyl]sulfonyl}pyridine-2-carboxamide]",96.6%,0.135 µM,67.4%,1.88 µM
"Nc1cc(S(=O)(=O)c2ccc(OC(F)(F)F)cc2)cnc1C(=O)NCCN1CCOCC1 [Compound 9, 3-amino-N-[2-(morpholin-4-yl)ethyl]-5-{[4-(trifluoromethoxy)phenyl]sulfonyl}pyridine-2-carboxamide]",97.5%,0.161 µM,59.5%,> 3.33 µM
"COc1ccnc(CNC(=O)c2ncc(S(=O)(=O)N3CCC[C@@H]3C)cc2N)n1 [Compound 281, 3-amino-N-[(4-methoxypyrimidin-2-yl)methyl]-5-{[(2S)-2-methylpyrrolidin-1-yl]sulfonyl}pyridine-2-carboxamide]",89.4%,0.167 µM,50.0%,> 3.33 µM

# Stronger by EC50 [1], values ahead:
% Activation [1],EC50 [1],% Activation [2],EC50 [2],Compound
111.0%,0.0029 µM,57.6%,1.16 µM,"COc1nc(C(=O)NC[C@H](C)O)c(N)cc1S(=O)(=O)c1ccc(OC(F)(F)F)cc1 [Compound 280, 3-amino-N-[(2S)-2-hydroxypropyl]-6-methoxy-5-{[4-(trifluoromethoxy)phenyl]sulfonyl}pyridine-2-carboxamide]"
98.6%,0.0471 µM,47.8%,1.14 µM,"Nc1cc(S(=O)(=O)c2ccc(C(F)(F)F)cc2)cnc1C(=O)N[C@@H]1COCC[C@@H]1O (racemic) [Compound 216, rac-3-amino-N-[(3R,4S)-4-hydroxytetrahydro-2H-pyran-3-yl]-5-{[4-(trifluoromethyl)phenyl]sulfonyl}pyridine-2-carboxamide]"
95.1%,0.0063 µM,67.0%,1.62 µM,"C[C@H](O)CNC(=O)c1nc(Oc2cccc(F)c2)c(S(=O)(=O)c2ccc(OC(F)(F)F)cc2)cc1N [Compound 284, 3-amino-6-(3-fluorophenoxy)-N-[(2S)-2-hydroxypropyl]-5-{[4-(trifluoromethoxy)phenyl]sulfonyl}pyridine-2-carboxamide]"
122.0%,0.0269 µM,50.4%,0.76 µM,"Nc1cc(S(=O)(=O)c2ccc(C(F)(F)F)cc2)cnc1C(=O)N[C@H]1COCC[C@H]1O [Compound 257, 3-amino-N-[(3S,4R)-4-hydroxytetrahydro-2H-pyran-3-yl]-5-{[4-(trifluoromethyl)phenyl]sulfonyl}pyridine-2-carboxamide]"
114.1%,0.0216 µM,65.0%,1.43 µM,"CC1(C)CN(S(=O)(=O)c2cnc(C(=O)NCC(O)C(F)(F)F)c(N)c2)C1 (stereo not drawn) [Compound 199, 3-amino-5-[(3,3-dimethylazetidin-1-yl)sulfonyl]-N-(3,3,3-trifluoro-2-hydroxypropyl)pyridine-2-carboxamide]"
99.8%,0.0192 µM,44.7%,1.05 µM,"Nc1cc(S(=O)(=O)c2ccc(C(F)(F)F)cc2F)cnc1C(=O)NCCO [Compound 219, 3-amino-5-{[2-fluoro-4-(trifluoromethyl)phenyl]sulfonyl}-N-(2-hydroxyethyl)pyridine-2-carboxamide]"
111.5%,0.001 µM,90.4%,0.453 µM,"Nc1cc(S(=O)(=O)c2ccc(F)cc2)c(Br)nc1C(=O)NC[C@@H](O)C(F)(F)F [Compound 250, 3-amino-6-bromo-5-[(4-fluorophenyl)sulfonyl]-N-[(2R)-3,3,3-trifluoro-2-hydroxypropyl]pyridine-2-carboxamide]"
116.7%,0.0429 µM,59.5%,2.34 µM,"Nc1cc(S(=O)(=O)NC[C@H]2CCOC2)cnc1C(=O)NCC(O)C(F)(F)F (stereo partly drawn) [Compound 200, 3-amino-5-{[(3R)-tetrahydrofuran-3-ylmethyl]sulfamoyl}-N-(3,3,3-trifluoro-2-hydroxypropyl)pyridine-2-carboxamide]"
99.1%,0.0028 µM,71.8%,0.705 µM,"CN(Cc1ccc(F)cc1)S(=O)(=O)c1cnc(C(=O)NCC(O)C(F)(F)F)c(N)c1 (stereo not drawn) [Compound 187, 3-amino-5-[(4-fluorobenzyl)(methyl)sulfamoyl]-N-(3,3,3-trifluoro-2-hydroxypropyl)pyridine-2-carboxamide]"
118.3%,0.0059 µM,50.3%,0.371 µM,"CC(C)(O)C1CN(C(=O)c2ncc(S(=O)(=O)c3ccc(OC(F)(F)F)cc3F)cc2N)C1 [Compound 174, (3-amino-5-{[2-fluoro-4-(trifluoromethoxy)phenyl]sulfonyl}pyridin-2-yl)[3-(2-hydroxypropan-2-yl)azetidin-1-yl]methanone]"
102.3%,0.0349 µM,40.6%,0.9 µM,"Nc1cc(S(=O)(=O)c2ccc(OC(F)(F)F)cc2F)cnc1C(=O)NC[C@H]1CCOC1 [Compound 115, 3-amino-5-{[2-fluoro-4-(trifluoromethoxy)phenyl]sulfonyl}-N-[(3R)-tetrahydrofuran-3-ylmethyl]pyridine-2-carboxamide]"
100.4%,0.0277 µM,52.6%,1.35 µM,"C[C@@H]1CCCN1S(=O)(=O)c1cnc(C(=O)NCC(O)C(F)(F)F)c(N)c1 (stereo partly drawn) [Compound 179, 3-amino-5-{[(2R)-2-methylpyrrolidin-1-yl]sulfonyl}-N-(3,3,3-trifluoro-2-hydroxypropyl)pyridine-2-carboxamide]"
